From patent US5602176A, “Phenyl carbamate” (priority 1987, dated 1997)
Read-outs that look alike come from different tables or passages of the source.

How the values were obtained:
[1] = tested on: rat hippocampal slices (indirect method for acetylcholinesterase (AChE) inhibition); assay: Electrically evoked 3H-acetylcholine release from rat hippocampal slices; assay type: cell-based
Description: Electrically evoked ^3 H-acetylcholine release from rat hippocampal slices
Electrically evoked ^3 H-acetylcholine (^3 H-ACh) release from rat hippocampal slices is a functional in vitro model to investigate presynaptic muscarinic autoreceptor agonists and antagonists. This model can also be used as an indirect method to evaluate drugs which inhibit acetylcholinesterase (AChE). Inhibition of AChE activity leads to the accumulation of endogenous ACh which then interacts with presynaptic muscarinic autoreceptors and inhibits further release of ^3 H-ACh.
Rat hippocampal slices (Wistar strain, 180-200 g) are prepared by chopping into cross sections whole hippocampal slices at a distance of 0.3 mm with a McIlwain tissue chopper. Hippocampal slices obtained from 3 rats are incubated for 30 min. at 23° C. in 6 ml Krebs-Ringer containing 0.1 uCi ^3 H-choline and transferred into the superfusion chamber and superfused with Kreb's medium containing 10 μM hemicholinium-3 at a rate of 1.2 ml/min. at 30° C. Collection of 5 min. fractions of the superfusate begins after 60 min. of superfusion. Two periods of electrical stimulation (2 Hz rectangular pulses 2 msec, 10 mA, 2 min.) are applied after 70 min. (S1) and after 125 min. (S2) of superfusion. […] At the end of the experiments the slices are solubilized in conc. formic acid and tritium content is determined in the superfusate and the solubilized slices. Tritium outflow is expressed as the fractional rate of tritium outflow per min. Electrically evoked tritium outflow is calculated by subtraction of the extrapolated basal tritium outflow from the total tritium outflow during the two min. of electrical stimulation and the following 13 min. and is expressed as percent of the tritium content at the beginning of the sample collection. Drug effects on stimulation evoked tritium outflow are expressed as the ratios S2 /S1. All experiments are run in dublicates using a programmable 12 channel superfusion system. For the calculation a computer program is used.

[2] = tested on: deoxyglucose (DOG) utilisation in the brain; assay: Muscarinic and nicotinic effects on brain glucose utilisation (deoxyglucose autoradiography); assay type: in vivo, rat; details: 7.5 μmol/kg p.o.
Description: Muscarinic and nicotinic effects on brain glucose utilisation
Changes in the functional activity of the CNS are associated with altered deoxyglucose (DOG) utilisation in the brain which can be visualised simultaneously in several brain regions using the autoradiographic method of Sokoloff et al., J. Neurochem. 28, 897 (1977). The administration of cholinergic drugs either direct (muscarinic agonists) or indirect (accumulation of acetylcholine) induces in this model a characteristic "fingerprint" pattern by modifying the regional glucose metabolism.
Male Wistar rats (150-200 g) are used. Drugs are administered at various doses and by different routes (i.v., p.o., i.p.) to animals. [14C]-2-deoxyglucose (125 μC/kg) is injected 45 min. before the animals are sacrificed. The brains are immediately excised, frozen at -80° C. and subsequently cut in slices with a thickness of 20 μm. The optical densities of the radiographic images are measured according to a modification of Sokoloff et al.

AChE [3] = target: T1, AChE (Rattus norvegicus, UniProt P37136); assay: in vivo; assay type: in vivo; parameters: from tissue; host or cells: male OFA rats: cortex, hippocampus, striatum, pons/medulla, heart, blood; details: for remaining activity at 10 µmol/kg: rat, po
T1 sequence (P37136 32-614): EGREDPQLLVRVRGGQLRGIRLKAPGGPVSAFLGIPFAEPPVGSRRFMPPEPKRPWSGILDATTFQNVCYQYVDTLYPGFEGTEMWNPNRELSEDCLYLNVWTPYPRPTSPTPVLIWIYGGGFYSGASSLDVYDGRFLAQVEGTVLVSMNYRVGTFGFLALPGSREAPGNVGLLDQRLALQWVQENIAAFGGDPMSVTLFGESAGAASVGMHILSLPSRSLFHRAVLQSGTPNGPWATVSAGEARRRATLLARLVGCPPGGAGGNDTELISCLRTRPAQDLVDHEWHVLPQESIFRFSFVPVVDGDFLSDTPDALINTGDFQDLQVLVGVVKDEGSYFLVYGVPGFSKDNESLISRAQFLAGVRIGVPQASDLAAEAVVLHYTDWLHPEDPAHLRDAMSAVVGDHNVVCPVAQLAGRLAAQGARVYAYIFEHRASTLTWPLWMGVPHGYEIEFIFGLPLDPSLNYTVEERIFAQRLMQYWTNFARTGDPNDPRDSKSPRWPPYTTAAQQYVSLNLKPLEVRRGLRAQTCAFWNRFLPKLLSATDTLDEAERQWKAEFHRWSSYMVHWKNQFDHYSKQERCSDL

AChE [4] = target: T1, AChE; assay: in vivo; parameters: Rat brain tissue is homogenized in cold phosphate buffer pH 7.3; from tissue; host or cells: rat brain (cortex, hippocampus, striatum), supernatant of Triton X-100 homogenate; details: for ED50: rat, po, 0.5 h
Procedure: The AChE activity is measured according to the method described by Ellman (Arch. Biochem. Biophys. 82, 70, 1959). Rat brain tissue is homogenized in cold phosphate buffer pH 7.3 (0.25 mM) containing 0.1% of Triton X-100. After centrifugation aliquots of the clear supernatant is used as enzyme source. The enzyme is preincubated with different concentrations of the inhibitor. After different times, substrate (acetylthiocholinjodide 0.5 mM) is added and the remaining activity determined.
Acetylcholinesterase inhibition ex vivo in different rat brain regions
The method is as disclosed above.

[5] = Subcutaneous 8 μmol/kg, 0.5 hours after treatment
[6] = Subcutaneous 8 μmol/kg, 6 hours after treatment
[7] = Subcutaneous 8 μmol/kg, 24 hours after treatment
[8] = Transdermal 30 μmol/kg, 0.5 hours after treatment
[9] = Transdermal 30 μmol/kg, 6 hours after treatment
[10] = Transdermal 30 μmol/kg, 24 hours after treatment
[11] = six hours after 10 μmol/kg p.o.

## CCN(C)C(=O)Oc1cccc([C@H](C)N(C)C)c1 [Compound A, (S)-N-ethyl-3-[(1-dimethylamino)ethyl]-N-methyl-phenyl-carbamate]
[1]
  antagonism of the inhibitory effect by atropine: can be antagonized by atropine
[1]; Rattus norvegicus, 3 h, 100 μM, read-out: inhibition of electrically evoked 3H-ACh release from hippocampal slices
  inhibition at 100 µM: ~40%
[2]
  changes in DOG utilisation in various rat brain regions: significant changes in DOG utilisation
AChE [3]; [5]
  AChE activity in % of controls ± SD, Blood: 17.4 ± 4.1 % of controls
  AChE activity in % of controls ± SD, Cortex: 16.8 ± 2.0 % of controls
  AChE activity in % of controls ± SD, Heart: 33.3 ± 5.6 % of controls
  AChE activity in % of controls ± SD, Hippocampus: 18.3 ± 3.1 % of controls
  AChE activity in % of controls ± SD, Pons/Medulla: 20.9 ± 2.9 % of controls
  AChE activity in % of controls ± SD, Striatum: 28.2 ± 12.2 % of controls
AChE [3]; [6]
  AChE activity in % of controls ± SD, Blood: 79.5 ± 8.2 % of controls
  AChE activity in % of controls ± SD, Cortex: 85.1 ± 1.6 % of controls
  AChE activity in % of controls ± SD, Heart: 51.0 ± 17.9 % of controls
  AChE activity in % of controls ± SD, Hippocampus: 81.4 ± 7.6 % of controls
  AChE activity in % of controls ± SD, Pons/Medulla: 87.1 ± 4.1 % of controls
  AChE activity in % of controls ± SD, Striatum: 82.9 ± 2.8 % of controls
AChE [3]; [7]
  AChE activity in % of controls ± SD, Blood: 105.7 ± 16.8 % of controls
  AChE activity in % of controls ± SD, Cortex: 93.8 ± 5.9 % of controls
  AChE activity in % of controls ± SD, Heart: 65.7 ± 21.2 % of controls
  AChE activity in % of controls ± SD, Hippocampus: 99.9 ± 9.9 % of controls
  AChE activity in % of controls ± SD, Pons/Medulla: 98.7 ± 6.0 % of controls
  AChE activity in % of controls ± SD, Striatum: 91.0 ± 2.3 % of controls
AChE [3]; [8]
  AChE activity in % of controls ± SD, Cortex: 86.1 ± 5.6 % of controls
  AChE activity in % of controls ± SD, Heart: 109.0 ± 9.3 % of controls
  AChE activity in % of controls ± SD, Hippocampus: 86.7 ± 5.9 % of controls
  AChE activity in % of controls ± SD, Pons/Medulla: 91.5 ± 3.8 % of controls
  AChE activity in % of controls ± SD, Striatum: 89.7 ± 8.4 % of controls
AChE [3]; [9]
  AChE activity in % of controls ± SD, Blood: 41.9 ± 13.1 % of controls
  AChE activity in % of controls ± SD, Heart: 52.0 ± 13.1 % of controls
  AChE activity in % of controls ± SD, Hippocampus: 45.7 ± 15.0 % of controls
  AChE activity in % of controls ± SD, Pons/Medulla: 53.6 ± 13.3 % of controls
AChE [3]; [10]
  AChE activity in % of controls ± SD, Cortex: 73.8 ± 5.7 % of controls
  AChE activity in % of controls ± SD, Heart: 63.9 ± 12.5 % of controls
  AChE activity in % of controls ± SD, Hippocampus: 80.4 ± 8.8 % of controls
  AChE activity in % of controls ± SD, Pons/Medulla: 85.3 ± 4.2 % of controls
  AChE activity in % of controls ± SD, Striatum: 81.0 ± 8.2 % of controls
AChE [3]; oral
  time of maximal AChE inhibition: 15 min
AChE [3]; read-out: AChE activity in % of controls ± SD, Blood, Oral 10 μmol/kg, 0.5 hours after treatment
  remaining activity at 10 µmol/kg: 34 ± 2%
AChE [3]; read-out: AChE activity in % of controls ± SD, Blood, Oral 10 μmol/kg, 6 hours after treatment
  remaining activity at 10 µmol/kg: 77.2 ± 14.7%
AChE [3]; read-out: AChE activity in % of controls ± SD, Blood, Oral 10 μmol/kg, 24 hours after treatment
  remaining activity at 10 µmol/kg: 97.2 ± 13.8%
AChE [3]; read-out: AChE activity in % of controls ± SD, Cortex, Oral 10 μmol/kg, 0.5 hours after treatment
  remaining activity at 10 µmol/kg: 21 ± 3.5%
AChE [3]; read-out: AChE activity in % of controls ± SD, Cortex, Oral 10 μmol/kg, 6 hours after treatment
  remaining activity at 10 µmol/kg: 65.3 ± 21.3%
AChE [3]; read-out: AChE activity in % of controls ± SD, Cortex, Oral 10 μmol/kg, 24 hours after treatment
  remaining activity at 10 µmol/kg: 99.2 ± 8.9%
AChE [3]; read-out: AChE activity in % of controls ± SD, Heart, Oral 10 μmol/kg, 0.5 hours after treatment
  remaining activity at 10 µmol/kg: 71.2 ± 11.2%
AChE [3]; read-out: AChE activity in % of controls ± SD, Heart, Oral 10 μmol/kg, 6 hours after treatment
  remaining activity at 10 µmol/kg: 101 ± 7%
AChE [3]; read-out: AChE activity in % of controls ± SD, Heart, Oral 10 μmol/kg, 24 hours after treatment
  remaining activity at 10 µmol/kg: 94.2 ± 9.2%
AChE [3]; read-out: AChE activity in % of controls ± SD, Hippocampus, Oral 10 μmol/kg, 0.5 hours after treatment
  remaining activity at 10 µmol/kg: 19.7 ± 3.8%
AChE [3]; read-out: AChE activity in % of controls ± SD, Hippocampus, Oral 10 μmol/kg, 6 hours after treatment
  remaining activity at 10 µmol/kg: 62 ± 15.4%
AChE [3]; read-out: AChE activity in % of controls ± SD, Hippocampus, Oral 10 μmol/kg, 24 hours after treatment
  remaining activity at 10 µmol/kg: 97.2 ± 7.1%
AChE [3]; read-out: AChE activity in % of controls ± SD, Pons/Medulla, Oral 10 μmol/kg, 0.5 hours after treatment
  remaining activity at 10 µmol/kg: 26.6 ± 4%
AChE [3]; read-out: AChE activity in % of controls ± SD, Pons/Medulla, Oral 10 μmol/kg, 6 hours after treatment
  remaining activity at 10 µmol/kg: 80.3 ± 9.2%
AChE [3]; read-out: AChE activity in % of controls ± SD, Pons/Medulla, Oral 10 μmol/kg, 24 hours after treatment
  remaining activity at 10 µmol/kg: 104 ± 6.8%
AChE [3]; read-out: AChE activity in % of controls ± SD, Striatum, Oral 10 μmol/kg, 0.5 hours after treatment
  remaining activity at 10 µmol/kg: 32.9 ± 10.7%
AChE [3]; read-out: AChE activity in % of controls ± SD, Striatum, Oral 10 μmol/kg, 6 hours after treatment
  remaining activity at 10 µmol/kg: 87.5 ± 8.8%
AChE [3]; read-out: AChE activity in % of controls ± SD, Striatum, Oral 10 μmol/kg, 24 hours after treatment
  remaining activity at 10 µmol/kg: 96.7 ± 3.3%
AChE [3]; subcutaneous
  time of maximal AChE inhibition: 30 min
AChE [3]; transdermal
  AChE inhibition after transdermal administration: long-lasting, dose-dependent inhibition of AChE activity
  time of maximal AChE inhibition: > 120 min
AChE [3]; twenty four hours after oral application
  AChE activity: has no effect on the enzyme
AChE [3]; twenty four hours after s.c. application
  AChE activity: only the enzyme in the heart is significantly inhibited
AChE [3]; twenty four hours after transdermal application
  AChE activity: still inhibited in central and peripheral regions
AChE [4]; read-out: IC50 ex vivo AChE, cortex
  ED50: 2 µmol/kg
AChE [4]; read-out: IC50 ex vivo AChE, hippocampus
  ED50: 4 µmol/kg
AChE [4]; read-out: IC50 ex vivo AChE, striatum
  ED50: 7 µmol/kg
AChE [4]; [11]
  AChE inhibition ex vivo, cortex: 39%
  AChE inhibition ex vivo, hippocampus: 44%
  AChE inhibition ex vivo, striatum: 16%
